Results published in ChEMBL document CHEMBL1201862, “PubChem BioAssay data set” (2004).
Active and inactive are the calls of the source.

Columns and labels:
[1] = molecular target: T1, Sentrin-specific protease 6 (Homo sapiens, UniProt Q9GZR1); format: functional;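 note: Luminescence-based dose-response confirmatory assay of SENP6 inhibition, following up an ultra-high-throughput screen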
T1 sequence (Q9GZR1 whole entry): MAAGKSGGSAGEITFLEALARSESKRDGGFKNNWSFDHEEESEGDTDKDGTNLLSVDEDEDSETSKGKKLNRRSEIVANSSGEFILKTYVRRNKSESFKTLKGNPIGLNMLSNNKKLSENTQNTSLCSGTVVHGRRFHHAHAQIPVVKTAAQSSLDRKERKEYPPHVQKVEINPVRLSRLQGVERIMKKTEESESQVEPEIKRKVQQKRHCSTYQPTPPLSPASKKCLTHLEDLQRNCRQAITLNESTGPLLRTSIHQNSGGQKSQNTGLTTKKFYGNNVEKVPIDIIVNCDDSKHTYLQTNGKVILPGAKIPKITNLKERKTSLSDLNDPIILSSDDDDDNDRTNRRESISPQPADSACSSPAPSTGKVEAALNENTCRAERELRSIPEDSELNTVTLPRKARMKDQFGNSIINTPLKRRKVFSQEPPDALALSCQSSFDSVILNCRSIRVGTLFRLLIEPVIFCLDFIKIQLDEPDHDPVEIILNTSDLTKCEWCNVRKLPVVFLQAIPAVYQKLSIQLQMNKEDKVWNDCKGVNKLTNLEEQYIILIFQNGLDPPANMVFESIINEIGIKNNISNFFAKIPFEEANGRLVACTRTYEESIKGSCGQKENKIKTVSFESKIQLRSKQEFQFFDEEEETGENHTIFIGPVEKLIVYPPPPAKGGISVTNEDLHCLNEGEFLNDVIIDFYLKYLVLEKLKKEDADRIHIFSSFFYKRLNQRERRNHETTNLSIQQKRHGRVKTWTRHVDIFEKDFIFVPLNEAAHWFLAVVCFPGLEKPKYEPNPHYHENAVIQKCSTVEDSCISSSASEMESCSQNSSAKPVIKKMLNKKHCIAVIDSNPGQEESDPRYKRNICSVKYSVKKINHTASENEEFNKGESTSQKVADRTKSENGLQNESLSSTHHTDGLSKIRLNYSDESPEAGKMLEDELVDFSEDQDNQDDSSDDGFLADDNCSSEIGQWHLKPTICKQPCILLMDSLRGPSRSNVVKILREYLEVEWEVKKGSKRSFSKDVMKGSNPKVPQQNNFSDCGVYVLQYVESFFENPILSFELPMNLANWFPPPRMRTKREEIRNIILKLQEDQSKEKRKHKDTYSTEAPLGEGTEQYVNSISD

[2] = molecular target: T2, Apoptotic protease-activating factor 1 (Homo sapiens, UniProt O14727); format: functional
T2 sequence (O14727 whole entry): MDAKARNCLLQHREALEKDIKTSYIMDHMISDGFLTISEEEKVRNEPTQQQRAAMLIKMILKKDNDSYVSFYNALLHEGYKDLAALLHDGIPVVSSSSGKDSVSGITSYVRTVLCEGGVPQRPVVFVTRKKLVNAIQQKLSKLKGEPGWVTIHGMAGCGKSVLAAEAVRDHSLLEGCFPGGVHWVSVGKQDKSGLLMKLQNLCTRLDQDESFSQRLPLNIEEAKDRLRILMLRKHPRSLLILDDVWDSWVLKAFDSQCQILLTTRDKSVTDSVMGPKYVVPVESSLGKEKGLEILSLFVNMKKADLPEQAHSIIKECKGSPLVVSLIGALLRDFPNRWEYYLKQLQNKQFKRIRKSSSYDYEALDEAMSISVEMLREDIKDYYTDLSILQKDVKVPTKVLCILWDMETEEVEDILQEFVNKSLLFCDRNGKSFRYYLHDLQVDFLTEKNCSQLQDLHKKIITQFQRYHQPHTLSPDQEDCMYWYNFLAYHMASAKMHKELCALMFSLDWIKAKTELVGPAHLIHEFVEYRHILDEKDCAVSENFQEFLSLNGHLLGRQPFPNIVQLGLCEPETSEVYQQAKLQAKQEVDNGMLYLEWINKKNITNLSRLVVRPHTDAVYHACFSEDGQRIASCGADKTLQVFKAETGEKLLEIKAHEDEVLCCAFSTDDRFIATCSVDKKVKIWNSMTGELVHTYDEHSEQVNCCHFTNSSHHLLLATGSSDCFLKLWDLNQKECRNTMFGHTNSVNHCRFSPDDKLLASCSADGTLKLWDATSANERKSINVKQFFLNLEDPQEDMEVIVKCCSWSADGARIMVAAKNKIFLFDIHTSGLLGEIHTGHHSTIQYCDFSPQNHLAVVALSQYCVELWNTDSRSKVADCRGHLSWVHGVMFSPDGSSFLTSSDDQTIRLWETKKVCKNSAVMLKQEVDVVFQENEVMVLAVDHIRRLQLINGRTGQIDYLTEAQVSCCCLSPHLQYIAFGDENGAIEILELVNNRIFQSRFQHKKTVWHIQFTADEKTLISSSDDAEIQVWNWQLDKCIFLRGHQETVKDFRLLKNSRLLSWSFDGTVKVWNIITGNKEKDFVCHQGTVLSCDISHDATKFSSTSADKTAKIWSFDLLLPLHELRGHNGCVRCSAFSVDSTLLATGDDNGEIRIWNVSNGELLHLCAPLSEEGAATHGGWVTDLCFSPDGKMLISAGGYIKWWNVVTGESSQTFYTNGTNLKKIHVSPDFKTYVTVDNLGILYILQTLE

[3] = cytotoxicity toward HCT116 cells – cell-based, CellTiter-Glo luminescence, IC50, dose response (AID 1117332); format: functional; conditions: HCT-116
BJ = assay: cytotoxicity toward BJ-TERT fibroblasts, dose response, cell-based, RAS-independent, luminescence (AID 1933); format: functional; conditions: Homo sapiens
[4] = cytotoxicity toward Colo320 cells – cell-based, CellTiter-Glo luminescence, IC50, dose response (AID 1117334); format: functional; conditions: COLO 320
[5] = RKO cell viability reduction, dose response, CellTiter-Glo luminescence (AID 1117322); format: functional
[6] = inhibitors of SNCA 5'UTR-driven reporter translation, confirmation, H4 neuroglioma cells, luminescence (AID 1988); format: functional, cell-based
[7] = HeLa cell cytotoxicity, dose response, cytotoxicity control for MgcRacGAP inhibitor project (AID 624300); format: functional
[8] = molecular target: T3, RNA-binding protein pos-1 (Caenorhabditis elegans, UniProt G5EF15); assay: inhibitors of POS-1/mex-3 RNA binding, dose response, biochemical, fluorescence polarization (AID 1964);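 note: purified POS-1 fused to maltose binding protein made in E. coli; potency of compounds blocking POS-1 binding to fluorescent RNA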
T3 sequence (G5EF15 whole entry): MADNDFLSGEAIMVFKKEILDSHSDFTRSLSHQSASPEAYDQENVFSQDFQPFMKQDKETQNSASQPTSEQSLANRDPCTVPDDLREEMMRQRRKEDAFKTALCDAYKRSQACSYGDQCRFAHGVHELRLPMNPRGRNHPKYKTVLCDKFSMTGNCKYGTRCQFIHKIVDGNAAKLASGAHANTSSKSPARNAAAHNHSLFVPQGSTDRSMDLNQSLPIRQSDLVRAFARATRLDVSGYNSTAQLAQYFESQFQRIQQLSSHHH

Row | IC50 [1] | IC50 [2] | Structure (SMILES) | IC50 [3] | EC50 (BJ) | IC50 [4] | IC50 [5] | EC50 [6] | CC50 [7] | EC50 [8]
1 | 3.96 µM (active) | 15 µM (active) | CCCOc1cc2c(C#N)c(N3CCCC3)nc(N)c2c(N)n1 | – | – | – | – | – | – | –
2 | – | 2.56 µM (active) | Oc1ccc(/C=N/Nc2cc(N3CCCC3)nc(N3CCCC3)n2)cc1O | – | – | – | – | – | – | –
3 | – | – | Cc1cc2nc3ccc(N(C)C)cc3[s+]c2cc1N [TOLONIUM CHLORIDE] | 2.78 µM (active) | 5.74 µM (active) | 0.987 µM (active) | 0.996 µM (active) | 7.13 µM (active) | 25 µM (active) | > 300 µM (not active)
